Results as given in patent US11697667B2, “Salts and polymorphs of cethromycin for the treatment of disease” (AliquantumRx, Inc., priority 2019, dated 2023).
Converted amounts (≈) assume the structure as drawn. “And” between values parts separate entries of the source, which are not always exact repeats. Identical values can stand only once. “Also recorded” adds a separate entry of the source.

How the values were obtained:
Format in all cases: physicochemical
[1] = Kinetic solubility (2 hours) in SGF media
Description: Sufficient sample was suspended in 0.25 ml media for a maximum anticipated concentration of ca. 40 mg/ml of the free form of the compound. The resulting suspensions were then shaken at 25° C./750 rpm for 2 hours. After equilibration, the appearance was noted, and the pH of the saturated solution was measured. Samples were then filtered through a glass ‘C’ fibre filter (particle retention 1.2 μm). All the samples were diluted 100 times with SGF media. […] Different volumes of the standard and diluted sample solutions were injected.

[2] = Thermodynamic solubility (24 hours) in PBS media; conditions: PBS pH 7.4, 24 hr (Table 33)
Description: (§1) Sufficient sample was suspended in 0.25 ml media for a maximum anticipated concentration of ca. 40 mg/ml of the free form of the compound. The resulting suspensions were then shaken at 25° C./750 rpm for 24 hours. The pH of samples suspended in PBS pH 7.4 were checked and adjusted if necessary (>0.05 change in pH) after 2 hours. After equilibration, the appearance was noted and the pH of the saturated solution was measured. Samples were then filtered through a glass ‘C’ fibre filter (Particle retention 1.2 μm). Samples suspended in PBS pH 7.4 buffer was diluted 10 times with PBS buffer and samples suspended in DI water diluted 100 times with DI water.

[3] = Thermodynamic solubility (24 hours) in DI water
Description: as §1

[4] = PXRD of residues undissolved after solubility analysis
Description: PXRD analysis was performed on residues that remained undissolved after the solubility analysis to check for changes in solid form.

[5] = Storage stability at 40° C./75% RH and 25° C./97% RH (PXRD, HPLC, NMR)
Description: Studies were performed on various cethromycin forms in order to determine stability for storage.

[6] = Solubility assessment of amorphous cethromycin chloride in solvents at 25° C.
[7] = Variable-temperature PXRD / thermal behaviour of acetate pattern 1; conditions: after VT PXRD
Description: For variable temperature (VT-XRPD) experiments samples were mounted on an Anton Paar DHS 900 hot stage at ambient conditions. The sample was then heated to the appropriate temperature at 20° C./min and subsequently held isothermally for 1 minute before data collection. Samples were prepared and analysed on a silicon wafer mounted to the hot stage using a heat-conducting paste.
In order to investigate this further a VT PXRD experiment on this material was carried out. On heating, the original white powder converts first to a translucent solid by 130° C., then to a translucent white solid by 170° C. This conversion is accompanied by loss of the original diffraction pattern is lost and appearance of a new diffraction pattern. […] The material is stable at RT.

[8] = Preliminary solubility investigation of amorphous cethromycin in solvents; conditions: for Solubility: 50 °C, organic solvent or mixture, thermodynamic from solid, heated to 50° C.
Description: Amorphous cethromycin (25 mg) in HPLC vials was treated with increasing volumes of solvent until the material fully dissolved or until a maximum of 60 vol (1.5 ml) had been added. After each addition of solvent, the vials were stirred and gently heated to 50° C. before the addition of a new aliquot of solvent. […] All solids were then isolated by filtration and dried under suction. Antisolvent (n-heptane, 10 or 20 vol) was added to any solutions and the resulting gums were matured in a chamber switching from 25° C. to 50° C. every four hours. All isolated solids were analysed by PXRD.

For `CCC1OC(=O)C(C)C(=O)C(C)C(OC2OC(C)CC(N(C)C)C2O)C(C)(OCC=Cc2cnc3ccccc3c2)CC(C)C(=O)C(C)C2NC(=O)OC12C` (stereo not drawn) [Free form], the “Avg Sol'y” value ([1]; 2 hr (Table 32)) was 25 mg/mL, the “Sol'y” value ([1]; 2 hr (Table 32)) was 24 mg/mL and the “pH at 2 hrs” value ([1]; 2 hr (Table 32)) was 7.6 and 7.5. The “Avg Sol'y” value [2] was 2.0 mg/mL, the “Sol'y” value [2] was 2.0 mg/mL and 1.9 mg/mL and the “pH at 24 hrs” value [2] was 6.8. For the same molecule, the “Avg Sol'y” value ([3]; DI Water, 24 hr (Table 34)) was 0.41 mg/mL, the “Sol'y” value ([3]; DI Water, 24 hr (Table 34)) was 0.47 mg/mL and 0.35 mg/mL and the “pH at 24 hrs” value ([3]; DI Water, 24 hr (Table 34)) was 8.1. The “PXRD of Residues” value ([4]; PBS pH 7.4, 24 hr) was “freebase pattern 2” and the “PXRD of Residues” value ([4]; SGF media, 2 hr) was “amorphous”.
In the case of `CCC1OC(=O)C(C)C(=O)C(C)C(OC2OC(C)CC(N(C)C)C2O)C(C)(OCC=Cc2cnc3ccccc3c2)CC(C)C(=O)C(C)C2NC(=O)OC12C.Cl` (stereo not drawn) [amorphous cethromycin chloride], the “Storage at 40° C./75% RH for 9 days (PXRD)” value ([5]; 9 days, Batch D) is reported as “did not crystallise; also recorded: amorphous”, the “Solubility in selected solvents” value ([6]; 18 solvents) is reported as “soluble in 10 of the 18 solvents” and the Solubility ([6]; Acetone, 1 vol) is reported as “✓ (dissolved)”. The Solubility ([6]; EtOAc, 1 vol) was “x (not dissolved/too dry to slurry)”, the Solubility ([6]; EtOAc, 2 vol) was “x (not dissolved/too dry to slurry)” and the Solubility ([6]; EtOAc, 3 vol) was “x (not dissolved/too dry to slurry)”. The Solubility ([6]; EtOAc, 4 vol) was “x (not dissolved/too dry to slurry)”, the Solubility ([6]; EtOAc, 5 vol) was “✓o (slurry)” and the Solubility ([6]; EtOH/H2O (10%), 1 vol) was “✓ (dissolved)”. The Solubility ([6]; Ethanol, 1 vol) was “✓ (dissolved)”, the Solubility ([6]; Hept, 1 vol) was “x (not dissolved/too dry to slurry)” and the Solubility ([6]; Hept, 2 vol) was “x (not dissolved/too dry to slurry)”. For the same molecule, the Solubility ([6]; Hept, 3 vol) was “x (not dissolved/too dry to slurry)”, the Solubility ([6]; Hept, 4 vol) was “x (not dissolved/too dry to slurry)” and the Solubility ([6]; Hept, 5 vol) was “x (not dissolved/too dry to slurry)”. The Solubility ([6]; Hept, 10 vol) was “✓o (slurry)”, the Solubility ([6]; MEK, 1 vol) was “x (not dissolved/too dry to slurry)” and the Solubility ([6]; MEK, 2 vol) was “x (not dissolved/too dry to slurry)”. For the same molecule, the Solubility ([6]; MEK, 3 vol) was “x (not dissolved/too dry to slurry)”, the Solubility ([6]; MEK, 4 vol) was “x (not dissolved/too dry to slurry)” and the Solubility ([6]; MEK, 5 vol) was “✓o (slurry)”. The Solubility ([6]; MIBK, 1 vol) was “x (not dissolved/too dry to slurry)”, the Solubility ([6]; MIBK, 2 vol) was “x (not dissolved/too dry to slurry)” and the Solubility ([6]; MIBK, 3 vol) was “x (not dissolved/too dry to slurry)”. The Solubility ([6]; MIBK, 4 vol) was “x (not dissolved/too dry to slurry)”, the Solubility ([6]; MIBK, 5 vol) was “✓o (slurry)” and the Solubility ([6]; MTBE, 1 vol) was “x (not dissolved/too dry to slurry)”. The Solubility ([6]; MTBE, 2 vol) was “x (not dissolved/too dry to slurry)”, the Solubility ([6]; MTBE, 3 vol) was “x (not dissolved/too dry to slurry)” and the Solubility ([6]; MTBE, 4 vol) was “x (not dissolved/too dry to slurry)”. The Solubility ([6]; MTBE, 10 vol) was “✓o (slurry)”, the Solubility ([6]; MeCN, 1 vol) was “✓ (dissolved)” and the Solubility ([6]; MeOH, 1 vol) was “✓ (dissolved)”. The Solubility ([6]; THF, 1 vol) was “x (not dissolved/too dry to slurry)”, the Solubility ([6]; THF, 2 vol) was “x (not dissolved/too dry to slurry)” and the Solubility ([6]; THF, 3 vol) was “x (not dissolved/too dry to slurry)”. For the same molecule, the Solubility ([6]; THF, 4 vol) was “x (not dissolved/too dry to slurry)”, the Solubility ([6]; THF, 5 vol) was “✓ (dissolved)” and the Solubility ([6]; THF/H2O (10%), 1 vol) was “✓ (dissolved)”. For the same molecule, the Solubility ([6]; Toluene, 1 vol) was “x (not dissolved/too dry to slurry)”, the Solubility ([6]; Toluene, 2 vol) was “x (not dissolved/too dry to slurry)” and the Solubility ([6]; Toluene, 3 vol) was “x (not dissolved/too dry to slurry)”. For the same molecule, the Solubility ([6]; Toluene, 4 vol) was “x (not dissolved/too dry to slurry)”, the Solubility ([6]; Toluene, 5 vol) was “x (not dissolved/too dry to slurry)” and the Solubility ([6]; Toluene, 10 vol) was “✓o (slurry)”. The Solubility ([6]; cHex, 1 vol) was “x (not dissolved/too dry to slurry)”, the Solubility ([6]; cHex, 2 vol) was “x (not dissolved/too dry to slurry)” and the Solubility ([6]; cHex, 3 vol) was “x (not dissolved/too dry to slurry)”. The Solubility ([6]; cHex, 4 vol) was “x (not dissolved/too dry to slurry)”, the Solubility ([6]; cHex, 5 vol) was “x (not dissolved/too dry to slurry)” and the Solubility ([6]; cHex, 10 vol) was “✓o (slurry)”. For the same molecule, the Solubility ([6]; iBuOH, 1 vol) was “✓ (dissolved)”, the Solubility ([6]; iPrOAc, 1 vol) was “x (not dissolved/too dry to slurry)” and the Solubility ([6]; iPrOAc, 2 vol) was “x (not dissolved/too dry to slurry)”. For the same molecule, the Solubility ([6]; iPrOAc, 3 vol) was “x (not dissolved/too dry to slurry)”, the Solubility ([6]; iPrOAc, 4 vol) was “x (not dissolved/too dry to slurry)” and the Solubility ([6]; iPrOAc, 5 vol) was “x (not dissolved/too dry to slurry)”. The Solubility ([6]; iPrOAc, 10 vol) was “✓o (slurry)”, the Solubility ([6]; iPrOH, 1 vol) was “✓ (dissolved)” and the Solubility ([6]; iPrOH/H2O (10%), 1 vol) was “✓ (dissolved)”.
In the case of `CC[C@H]1OC(=O)[C@H](C)C(=O)[C@H](C)[C@@H](O[C@@H]2O[C@H](C)C[C@H](N(C)C)[C@H]2O)[C@](C)(OCC=Cc2cnc3ccccc3c2)C[C@@H](C)C(=O)[C@H](C)[C@H]2NC(=O)O[C@@]21C` [freebase pattern 1], the “Stability of the form at RT” value [7] is reported as “stable at RT”, the “HPLC Purity after storage at 40° C./75% RH for 7 days” value ([5]; 7 days) is reported as 96.6% and the “PXRD after storage at 40° C./75% RH for 7 days” value ([5]; 7 days, made from acetate pattern 1 by heating to 150° C.) is reported as “freebase pattern 1”.
For `CC[C@H]1OC(=O)[C@H](C)C(=O)[C@H](C)[C@@H](O[C@@H]2O[C@H](C)C[C@H](N(C)C)[C@H]2O)[C@](C)(OC/C=C/c2cnc3ccccc3c2)C[C@@H](C)C(=O)[C@H](C)[C@H]2NC(=O)O[C@@]21C` [Cethromycin, (3aS,4R,7R,9R,10R,11R,13R,15R,15aR)-10-(((2S,3R,4S,6R)-4-(dimethylamino)-3-hydroxy-6-methyltetrahydro-2H-pyran-2-yl)oxy)-4-ethyl-3a,7,9,11,13,15-hexamethyl-11-(((E)-3-(quinolin-3-yl)allyl)oxy)octahydro-2H-[1]oxa-cyclotetradecino[4,3-d]oxazole-2,6,8,14(1H,7H,9H)-tetraone], the solubility kinetic at 2 h ([1]; simulated gastric fluid, thermodynamic from solid, 2 hours, 25° C.) was 25 mg/mL (≈ 32.6 mM), the Solubility ([8]; 2-propanol, 10 vol) was over 100 mg/mL and the Solubility in solvents ([8]; 10 vol of THF:H2O (9:1), 2-propanol, EtOH, EtOAc, acetone, MeCN, THF, TBME and DCM) was “readily soluble”. For the same molecule, the Solubility ([8]; DCM, 10 vol) was over 100 mg/mL, the Solubility ([8]; EtOAc, 10 vol) was over 100 mg/mL and the Solubility ([8]; EtOH, 10 vol) was over 100 mg/mL. It also gave a Solubility ([8]; Hept (heptane), Hept, 10 vol) of under 100 mg/mL, a Solubility ([8]; Hept (heptane), Hept, 20 vol) of under 50 mg/mL and a Solubility ([8]; Hept (heptane), Hept, 30 vol) of under 33.3 mg/mL. For the same molecule, the Solubility ([8]; Hept (heptane), Hept, 40 vol) was under 25 mg/mL, the Solubility ([8]; Hept (heptane), Hept, 50 vol) was under 20 mg/mL and the Solubility ([8]; Hept (heptane), Hept, 60 vol) was under 16.7 mg/mL. The Solubility ([8]; MeCN, 10 vol) was over 100 mg/mL, the Solubility ([8]; TBME, 10 vol) was over 100 mg/mL and the Solubility ([8]; THF, 10 vol) was over 100 mg/mL. The Solubility ([8]; THF:H2O (9:1), THF:H2O (9:1), 10 vol) was over 100 mg/mL, the Solubility ([8]; acetone, 10 vol) was over 100 mg/mL and the “pH of the saturated solution, thermodynamic solubility in DI water” value ([3]; DI water, 24 hours) was 7.0. It also gave a solubility thermodynamic at 24 h ([3]; thermodynamic from solid, DI water, 24 hours, 25° C.) of 0.4 mg/mL (≈ 0.522 mM).
